According to patent publication US20110111016A1, “NON-DNA BASE-CONTAINING POLYNUCLEOTIDE COMPOSITIONS AND THEIR USE FOR THE MODULATION OF IMMUNE RESPONSES” (priority 2009, published 2011):

Columns and labels:
human PBMC = experiment: Induction of cytokines and chemokines from human PBMC, comparison with CpG polynucleotides (Milliplex MAP kit); type: cell-based; conditions: for Cytokine, IL-6 / Cytokine, IL-10 / Cytokine, MCP-1 / Cytokine, RANTES (CCL5): human PBMC culture supernatant, 48 h, final concentration 10 μg/mL; for Chemokine (MCP-1, RANTES) inducing activity towards human PBMC (in words) / Interleukin (cytokine) inducing activity towards human PBMC (in words): in comparison to LPS and MCC, Table 14
Experimental: LPS and MCC were included as positive controls as described in Example 7. PBMC were isolated from whole blood using standard Ficoll-Paque Plus (GE Healthcare Life Sciences, Baie d'Urfé, QC, Canada) gradient centrifugation, and placed in tissue culture plates at a concentration of 1×10^6 cells/mL (total volume: 1 mL in RPMI 1640 medium containing 10% heat-inactivated FBS (both from Wisent, St-Bruno, QC, Canada) and 50 μg/mL gentamycin sulfate (Sigma-Aldrich Canada, Oakville, ON, Canada). Non-DNA base-containing polynucleotide SEQ ID NOs: 1, 2, 3, 4, 5, 6, 7, 8 and 9 were added to separate wells to give a final concentration of 10 μg/mL, LPS was added to give a final concentration of 10 μg/mL, and the non-CpG 4010, CpG 2336, CpG 2429 and CpG 7909 polynucleotides, SEQ ID NOs: 31, 33, 35 and 34, respectively, were added to give a final concentration of 10 μg/mL.
The cells were then cultivated for 48 h. Cytokines (interleukins IL-6 and IL-10, chemokines MCP-1 and RANTES) in the culture supernatant were measured using a Milliplex™ MAP kit (Millipore Corporation, Billerica, Mass., USA) on a Bio-Plex 200 system (Bio-Rad Laboratories, Hercules, Calif., USA). MCP-1, also known as monocyte chemotactic protein, is an essential chemokine required for effective monocyte and myeloid dendritic cell activation and trafficking across endothelial and epithelial barriers (see for example Henkel et al, 2004 Ann. Neurol. 55:221-235), and RANTES (Regulated on Activation, Normal T cell Expressed and Secreted, now more commonly known as CCL5) is produced by memory phenotype T cells and is chemotactic for and activates T-cells (see for example Swanson et al, 2002 Immunity 17:605-615).

human TLR9 = molecular target: T1, human TLR9 (Homo sapiens, UniProt Q9NR96); experiment: NF-κB activation (secreted alkaline phosphatase reporter) in HEK293 cells expressing human TLR9; type: cell-based; conditions: HEK293/hTLR9 cell line; polynucleotide final concentration 10 μg/mL; 16-20 hours
T1 construct: host or cells: HEK293
T1 sequence (Q9NR96 26-1032): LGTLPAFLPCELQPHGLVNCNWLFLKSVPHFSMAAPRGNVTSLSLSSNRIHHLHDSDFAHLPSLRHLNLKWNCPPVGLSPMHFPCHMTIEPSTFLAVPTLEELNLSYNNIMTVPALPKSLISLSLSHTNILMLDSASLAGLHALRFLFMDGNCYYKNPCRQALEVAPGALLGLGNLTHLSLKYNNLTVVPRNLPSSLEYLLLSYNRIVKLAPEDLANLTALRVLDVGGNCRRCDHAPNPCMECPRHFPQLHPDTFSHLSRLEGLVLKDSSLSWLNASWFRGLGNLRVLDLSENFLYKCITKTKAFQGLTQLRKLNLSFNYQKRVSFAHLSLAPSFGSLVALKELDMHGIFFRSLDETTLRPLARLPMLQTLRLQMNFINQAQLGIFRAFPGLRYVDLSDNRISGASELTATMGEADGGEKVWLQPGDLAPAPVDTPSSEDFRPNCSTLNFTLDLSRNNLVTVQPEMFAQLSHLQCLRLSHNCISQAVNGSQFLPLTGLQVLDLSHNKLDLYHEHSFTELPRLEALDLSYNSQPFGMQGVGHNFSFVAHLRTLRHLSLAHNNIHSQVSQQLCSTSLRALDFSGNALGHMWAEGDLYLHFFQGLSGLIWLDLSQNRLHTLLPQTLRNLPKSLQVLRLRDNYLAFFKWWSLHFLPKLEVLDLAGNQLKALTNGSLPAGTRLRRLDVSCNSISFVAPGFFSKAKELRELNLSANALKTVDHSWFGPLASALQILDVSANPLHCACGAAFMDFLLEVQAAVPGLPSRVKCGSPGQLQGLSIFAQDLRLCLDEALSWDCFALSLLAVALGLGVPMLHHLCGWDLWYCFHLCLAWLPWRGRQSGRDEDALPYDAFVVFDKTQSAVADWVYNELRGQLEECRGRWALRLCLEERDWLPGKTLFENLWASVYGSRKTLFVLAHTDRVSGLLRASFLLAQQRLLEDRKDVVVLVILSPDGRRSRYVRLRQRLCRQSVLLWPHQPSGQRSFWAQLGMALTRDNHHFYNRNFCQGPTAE
Experimental: Toll-like receptors (TLR) are known to interact with a number of natural and synthetic molecules that can function as immune adjuvants. Examples of these molecules are Poly (I:C) polynucleotides, lipopolysaccharide and CpG-containing polynucleotides. The interaction of non-DNA base-containing polynucleotides (SEQ ID NOs: 1-3) to interact with TLR and induce down-stream signaling was tested by assessing NF-κB activation in HEK293 cells expressing human TLR2, 3, 4, 5, 7, 8 and 9. TLR engagement was determined by measurement of secreted alkaline phosphatase, under the control of a reporter inducible by NF-κB. Appropriate positive controls were used for each TLR. […] HEK293 cells containing the appropriate TLR and NF-κB reporting system (InvivoGen, San Diego, Calif., USA) were placed in wells of 96 well plates (25,000-50,000 cells, in a final volume of 200 μL medium designed for the detection of NF-κB induced secreted alkaline phosphatase expression), and incubated with non-DNA base-containing polynucleotides or positive controls for 16-20 hours. TLR activating activity was determined by measurement of absorbance at 650 nm wavelength using a Coulter AD340C absorbance detector. The results shown are expressed as Optical Density (OD).

Substance	Cytokine, IL-6 (human PBMC) [pg/mL]	Cytokine, IL-10 (human PBMC) [pg/mL]	Cytokine, MCP-1 (human PBMC) [pg/mL]	Cytokine, RANTES (CCL5) (human PBMC) [pg/mL]	Chemokine (MCP-1, RANTES) inducing activity towards human PBMC (in words) (human PBMC)	Interleukin (cytokine) inducing activity towards human PBMC (in words) (human PBMC)	TLR activation, Optical Density at 650 nm, hTLR9 (human TLR9)
IIGTII [SEQ ID NO: 3]	1	0	57	72	marginal or no	marginal or no	0.083
NebGGTGNeb (DNA NGGTGN; Nebularine at both ends, sugar and linkages not given here, further chemistry not given here) [SEQ ID NO: 1, 5′-OH, 3′-OH non-DNA base-containing polynucleotide]	26	0	160	93	marginal or no	marginal or no	0.074
UUGTUU [SEQ ID NO: 2]	6	0	196	66	marginal or no	marginal or no	0.090
